Laboratory results as given in patent US20160237045A1, “SUBSTITUTED PHENYLALANINE DERIVATIVES” (BAYER PHARMA AKTIENGESELLSCHAFT, priority 2013, published 2016).
Structures can show the parent of a compound that is named as a salt.

What was measured:
human factor XIa = target: T1, human factor XIa (Homo sapiens, UniProt P03951); assay: Measurement of FXIa inhibition (fluorogenic peptide substrate Boc-Glu(OBzl)-Ala-Arg-AMC); assay type: biochemical; details: factor XIa from Kordia 0.45 nM; 15 min preincubation; 30 min at 22° C.; fluorescence of AMC
T1 construct: purchased Kordia
Experimental: a.1) Measurement of FXIa Inhibition
The factor XIa inhibition of the substances according to the invention is determined using a biochemical test system which utilizes the reaction of a peptidic factor XIa substrate to determine the enzymatic activity of human factor XIa. Here, factor XIa cleaves from the peptic factor XIa substrate the C-terminal aminomethylcoumarin (AMC), the fluorescence of which is measured. The determinations are carried out in microtitre plates.
Test substances are dissolved in dimethyl sulphoxide and serially diluted in dimethyl sulphoxide (3000 μM to 0.0078 μM; resulting final concentrations in the test: 50 μM to 0.00013 μM). In each case 1 μl of the diluted substance solutions is placed into the wells of white microtitre plates from Greiner (384 wells). Subsequently, the following are added successively: 20 μl of assay buffer (50 mmol/l Tris buffer pH 7.4; 100 mmol/l sodium chloride; 5 mmol/l calcium chloride; 0.1% bovine serum albumin) and 20 μl of factor XIa from Kordia (0.45 nM in assay buffer). After 15 min of incubation, the enzyme reaction is started by addition of 20 μl of the factor XIa substrate Boc-Glu(OBzl)-Ala-Arg-AMC dissolved in assay buffer (10 μM in assay buffer) from Bachem, the mixture is incubated at room temperature (22° C.) for 30 min and fluorescence is then measured (excitation: 360 nm, emission: 460 nm). The measured emissions of the test batches with test substance are compared to those of control batches without test substance (only dimethyl sulphoxide instead of test substance in dimethyl sulphoxide), and IC50 values are calculated from the concentration/activity relationships.

plasma = assay: Determination of anticoagulatory activity: activated partial thromboplastin time (aPTT) in plasma; details: in vitro in human and animal plasma (species of Table B not stated); C.K. Prest kit; 37° C., 3 minutes incubation
Experimental: a.4) Determination of Anticoagulatory Activity
The anticoagulatory activity of the test substances is determined in vitro in human and animal plasma (for example mouse, rat, rabbit, pig and dog plasma). To this end, blood is drawn off in a mixing ratio of sodium citrate/blood of 1:9 using a 0.11 molar sodium citrate solution as receiver. Immediately after the blood has been drawn off, it is mixed thoroughly and centrifuged at about 4000 g for 15 minutes. The supernatant is pipetted off.
The activated partial thromboplastin time (aPTT) is determined in the presence of varying concentrations of test substance or the corresponding solvent using a commercial test kit (C.K. Prest from Diagnostica Stago). The test compounds are incubated with the plasma and the PTT reagent (cephalin, kaolin) at 37° C. for 3 minutes. Coagulation is then started by addition of a 25 mM aqueous calcium chloride solution, and the time when coagulation occurs is determined. The concentration of test substance which brings about a 1.5-fold extension of the aPTT is determined.

T1 sequence (P03951 388-625 limits assumed): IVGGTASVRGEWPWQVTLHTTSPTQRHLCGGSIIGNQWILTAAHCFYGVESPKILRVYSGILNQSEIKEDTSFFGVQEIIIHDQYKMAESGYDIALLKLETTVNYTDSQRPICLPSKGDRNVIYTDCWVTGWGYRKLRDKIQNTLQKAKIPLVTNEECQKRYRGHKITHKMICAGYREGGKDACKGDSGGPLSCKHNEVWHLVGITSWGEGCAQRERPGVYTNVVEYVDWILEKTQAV
T1 sequence (P03951 19-387 partner limits assumed): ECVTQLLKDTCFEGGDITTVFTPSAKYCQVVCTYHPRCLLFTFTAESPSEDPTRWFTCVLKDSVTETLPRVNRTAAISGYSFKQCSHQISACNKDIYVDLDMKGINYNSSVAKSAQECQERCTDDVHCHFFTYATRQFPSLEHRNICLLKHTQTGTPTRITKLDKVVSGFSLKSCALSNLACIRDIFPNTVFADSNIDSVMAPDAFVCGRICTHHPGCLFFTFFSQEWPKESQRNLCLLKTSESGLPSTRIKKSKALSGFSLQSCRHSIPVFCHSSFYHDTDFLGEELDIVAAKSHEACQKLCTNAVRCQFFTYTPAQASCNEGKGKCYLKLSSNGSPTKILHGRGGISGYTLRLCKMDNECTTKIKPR

Row | Compound | IC50 (human factor XIa) | aPTT (concentration of test substance which brings about a 1.5-fold extension of the aPTT) (plasma)
1 | NC[C@H]1CC[C@H](C(=O)N[C@@H](Cc2ccc(-c3ccccc3CN3CCNCC3)cc2)C(=O)Nc2ccc(-c3nnn[nH]3)cc2)CC1 [Example 16, trans-4-(Aminomethyl)-N-[(2S)-1-oxo-3-[2′-(piperazin-1-ylmethyl)biphenyl-4-yl]-1-{[4-(1H-tetrazol-5-yl)phenyl]amino}propan-2-yl]cyclohexanecarboxamide hydrochloride] | 6.2 nM | 0.08 µmol/L
2 | NC[C@H]1CC[C@H](C(=O)N[C@@H](Cc2ccc(-c3ccccc3C(=O)N3CCNCC3)cc2)C(=O)Nc2ccc(-c3nn[nH]n3)cc2)CC1 [Example 5, trans-4-(Aminomethyl)-N-[(2S)-1-oxo-3-[2′-(piperazin-1-ylcarbonyl)biphenyl-4-yl]-1-{[4-(2H-tetrazol-5-yl)phenyl]amino}propan-2-yl]cyclohexanecarboxamide hydrochloride] | 11 nM | 0.32 µmol/L
3 | CC(C)Oc1ccccc1-c1ccc(C[C@H](NC(=O)[C@H]2CC[C@H](CN)CC2)C(=O)Nc2ccc(-c3nc(C(F)(F)C(F)(F)C(=O)O)n[nH]3)cc2)cc1 [Example 17, 3-[5-(4-{[(2S)-2-({[trans-4-(Aminomethyl)cyclohexyl]carbonyl}amino)-3-(2′-isopropoxybiphenyl-4-yl)propanoyl]amino}phenyl)-1H-1,2,4-triazol-3-yl]-2,2,3,3-tetrafluoropropanoic acid hydrochloride] | 1.2 nM | 0.22 µmol/L
4 | NC[C@H]1CC[C@H](C(=O)N[C@@H](Cc2ccc(-c3ccccc3C(=O)N3CCCCC3)cc2)C(=O)Nc2ccc(-c3nn[nH]n3)cc2)CC1 [Example 4, trans-4-(Aminomethyl)-N-[(2S)-1-oxo-3-[2′-(piperidin-1-ylcarbonyl)biphenyl-4-yl]-1-{[4-(2H-tetrazol-5-yl)phenyl]amino}propan-2-yl]cyclohexanecarboxamide hydrochloride] | 1.3 nM | 0.07 µmol/L
5 | NC[C@H]1CC[C@H](C(=O)N[C@@H](Cc2ccc(-c3ccccc3S(=O)(=O)N3CCOCC3)cc2)C(=O)Nc2ccc(-c3nn[nH]n3)cc2)CC1 [Example 1, trans-4-(Aminomethyl)-N-[(2S)-3-[2′-(morpholin-4-ylsulphonyl)biphenyl-4-yl]-1-oxo-1-{[4-(2H-tetrazol-5-yl)phenyl]amino}propan-2-yl]cyclohexanecarboxamide hydrochloride] | 1.9 nM | 0.17 µmol/L
6 | CNC(=O)c1ccccc1-c1ccc(C[C@H](NC(=O)[C@H]2CC[C@H](CN)CC2)C(=O)Nc2ccc(-c3nn[nH]n3)cc2)cc1 [Example 7, 4′-[(2S)-2-({[trans-4-(Aminomethyl)cyclohexyl]carbonyl}amino)-3-oxo-3-{[4-(2H-tetrazol-5-yl)phenyl]amino}propyl]-N-methylbiphenyl-2-carboxamide hydrochloride] | 12 nM | 0.61 µmol/L
7 | NC[C@H]1CC[C@H](C(=O)N[C@@H](Cc2ccc(-c3ccccc3C(N)=O)cc2)C(=O)Nc2ccc(-c3nc(C(F)(F)C(F)(F)C(=O)O)n[nH]3)cc2)CC1 [Example 15, 3-[5-(4-{[(2S)-2-({[trans-4-(Aminomethyl)cyclohexyl]carbonyl}amino)-3-(2′-carbamoylbiphenyl-4-yl)propanoyl]amino}phenyl)-1H-1,2,4-triazol-3-yl]-2,2,3,3-tetrafluoropropanoic acid hydrochloride] | 12 nM | 0.23 µmol/L
8 | NCC(=O)NCC(=O)NCC(=O)Nc1ccccc1-c1ccc(C[C@H](NC(=O)[C@H]2CC[C@H](CN)CC2)C(=O)Nc2ccc(-c3nn[nH]n3)cc2)cc1 [Example 9, Glycylglycyl-N-{4′-[(2S)-2-({[trans-4-(aminomethyl)cyclohexyl]carbonyl}amino)-3-oxo-3-{[4-(2H-tetrazol-5-yl)phenyl]amino}propyl]biphenyl-2-yl}glycinamide hydrochloride] | 5.3 nM | 0.12 µmol/L
9 | NC[C@H]1CC[C@H](C(=O)N[C@@H](Cc2ccc(-c3ccccc3C(=O)NC3CCNCC3)cc2)C(=O)Nc2ccc(-c3nn[nH]n3)cc2)CC1 [Example 6, 4′-[(2S)-2-({[trans-4-(Aminomethyl)cyclohexyl]carbonyl}amino)-3-oxo-3-{[4-(2H-tetrazol-5-yl)phenyl]amino}propyl]-N-(piperidin-4-yl)biphenyl-2-carboxamide hydrochloride] | 39 nM | 0.57 µmol/L
10 | NC[C@H]1CC[C@H](C(=O)N[C@@H](Cc2ccc(-c3ccccc3NC(=O)C3CCNCC3)cc2)C(=O)Nc2ccc(-c3nnn[nH]3)cc2)CC1 [Example 12, N-{4′-[(2S)-2-({[trans-4-(Aminomethyl)cyclohexyl]carbonyl}amino)-3-oxo-3-{[4-(1H-tetrazol-5-yl)phenyl]amino}propyl]biphenyl-2-yl}piperidine-4-carboxamide hydrochloride] | 8.9 nM | 0.29 µmol/L

Continued, in another order:

Row | IC50 (human factor XIa) | Compound | aPTT (concentration of test substance which brings about a 1.5-fold extension of the aPTT) (plasma)
11 | 2.8 nM | NC[C@H]1CC[C@H](C(=O)N[C@@H](Cc2ccc(-c3ccccc3C(=O)N3CCOCC3)cc2)C(=O)Nc2ccc(-c3nn[nH]n3)cc2)CC1 [Example 2, trans-4-(Aminomethyl)-N-[(2S)-3-[2′-(morpholin-4-ylcarbonyl)biphenyl-4-yl]-1-oxo-1-{[4-(2H-tetrazol-5-yl)phenyl]amino}propan-2-yl]cyclohexanecarboxamide hydrochloride] | 0.03 µmol/L
12 | 4.2 nM | NC[C@H]1CC[C@H](C(=O)N[C@@H](Cc2ccc(-c3ccccc3CO)cc2)C(=O)Nc2ccc(-c3nn[nH]n3)cc2)CC1 [Example 14, trans-4-(Aminomethyl)-N-[(2S)-3-[2′-(hydroxymethyl)biphenyl-4-yl]-1-oxo-1-{[4-(2H-tetrazol-5-yl)phenyl]amino}propan-2-yl]cyclohexanecarboxamide hydrochloride] | 0.31 µmol/L
13 | 5.5 nM | NC[C@H]1CC[C@H](C(=O)N[C@@H](Cc2ccc(-c3ccccc3N)cc2)C(=O)Nc2ccc(-c3nn[nH]n3)cc2)CC1 [Example 8, trans-N-[(2S)-3-(2′-Aminobiphenyl-4-yl)-1-oxo-1-{[4-(2H-tetrazol-5-yl)phenyl]amino}propan-2-yl]-4-(aminomethyl)cyclohexanecarboxamide hydrochloride] | 0.24 µmol/L
14 | 4 nM | CC(=O)Nc1ccccc1-c1ccc(C[C@H](NC(=O)[C@H]2CC[C@H](CN)CC2)C(=O)Nc2ccc(-c3nn[nH]n3)cc2)cc1 [Example 13, trans-N-[(2S)-3-(2′-Acetamidobiphenyl-4-yl)-1-oxo-1-{[4-(2H-tetrazol-5-yl)phenyl]amino}propan-2-yl]-4-(aminomethyl)cyclohexanecarboxamide hydrochloride] | 0.18 µmol/L
15 | 7.2 nM | CN(C)CC(=O)Nc1ccccc1-c1ccc(C[C@H](NC(=O)[C@H]2CC[C@H](CN)CC2)C(=O)Nc2ccc(-c3nn[nH]n3)cc2)cc1 [Example 10, trans-4-(Aminomethyl)-N-[(2S)-3-(2′-{[(dimethylamino)acetyl]amino}biphenyl-4-yl)-1-oxo-1-{[4-(2H-tetrazol-5-yl)phenyl]amino}propan-2-yl]cyclohexanecarboxamide hydrochloride] | 0.23 µmol/L
16 | 0.7 nM | CCN(CC)C(=O)c1ccccc1-c1ccc(C[C@H](NC(=O)[C@H]2CC[C@H](CN)CC2)C(=O)Nc2ccc(-c3nn[nH]n3)cc2)cc1 [Example 3, 4′-[(2S)-2-({[trans-4-(Aminomethyl)cyclohexyl]carbonyl}amino)-3-oxo-3-{[4-(2H-tetrazol-5-yl)phenyl]amino}propyl]-N,N-diethylbiphenyl-2-carboxamide hydrochloride] | 0.12 µmol/L
